Test results taken from patent US8158577B2, “Modulation of cartilage homeostasis by active domains of cell binding extracellular matrix molecules” (priority 2004, dated 2012).

Key:
K105 cells = experiment: Adhesion of K105 cells to chondroadherin in the presence of synthetic peptide (FIG. 3, 5A-5B, 13); assay type: cell-based, human; conditions: 1 hour at 37° C.
Method: Human cells (K9) originating from a human chondrosarcoma were a kind gift from Drs. Sven Inerot and Anders Lindahl, The Salgrenska University Hospital Gothenburg, Sweden. The K9 cells were cultured in Dulbeccos Modified Eagle Medium: Nutrient Mixture F12 (DMEM/F12 1:1) with GLUTAMAX I, supplemented with 10% fetal calf serum, 25 μg/ml ascorbic acid, 50 IU of penicillin and 50 μg/ml streptomycin (Life Technologies, Inc.). A different human cells line (K105) originating from a human chondrosarcoma was a kind gift from Dr. Sven Inerot, The Salgrenska University Hospital, Gothenburg, Sweden. The K105 cells were cultured in a mix of 40% Dulbeccos Modified Eagle Medium, 40% Minimum Essential Media (MEM) alpha Medium, 10% Nutrient Mixture F1 supplemented with 100 nM hydrocortisone, 100 ng/ml insulin, 10% fetal calf serum, 25 μg/ml ascorbic acid, 50 IU of penicillin and 50 μg/ml streptomycin (Life Technologies, Inc.). To harvest cells, culture dishes were rinsed three times with Ca^2+/Mg^2+-free PBS and the cells were incubated with 0.5% trypsin and 1 mM EDTA for 5 min. Detached cells were suspended in PBS containing 1 mg/ml trypsin inhibitor (Sigma) and then washed in PBS. To remove membrane-bound collagens the cells were treated with collagenase 100 U/ml (CLSPA; Worthington Biochemical Corp., Lakewood, N.J.) in PBS, 30 min. 37° C. and then washed in PBS.
Tissue culture 48-wells dishes (Nunclon, Nunc, Denmark) were coated overnight with 5 μg/ml chondroadherin in 4M Guanidine-HCl, 50 mM sodium acetate, pH 5.8, or for native protein in PBS. Alternatively coating was with 5 μg/ml collagen type II in PBS followed by after-coating with 0.5% BSA in PBS for 3 hours. Collagen type II was isolated from bovine nasal cartilage by pepsin digestion (11). Bacterially expressed chondroadherin was isolated as described above. Recombinant chondroadherin expressed in EBNA cell was cloned and purified as described elsewhere (8).
To test cell binding, the chondrosarcoma cells or bovine chondrocytes were suspended in PBS containing 0.1% BSA, 25 U/ml collagenase and added to the wells (50,000/well), in the absence or presence of various peptide pools or the synthetic peptides (200, 100, 50, 25, 12.5 μg/ml). Non-adherent cells were removed after 1 hour and adhesion was determined by measuring lysosomal N-acetylglucosaminidase (12). Adhesion and spreading was visualized by light microscopy. In the time studies, k105 cells were allowed to adhere for 30 minutes, unbound cells were removed and medium without serum supplemented with or without peptides (250 μg/ml), β1 integrin antibody (clone P4C10, Gibco BRL), EDTA (5 mM) was added. Cell morphology was visualized by light microscopy after 1, 3 and 20 hours.
Study design: Tissue culture dishes (48-wells) were coated with 5 μg/ml chondroadherin expressed in E. coli and blocked for non-specific binding with BSA. […] were suspended in PBS containing 0.1% BSA, 25 U/ml collagenase and added to the wells (50,000/well) in the presence of synthetic peptide to be tested and allowed to adhere for 1 hour at 37° C. Nonadherent cells were removed by washing, and adhesion was determined by analyzing lysosomal hexosaminidase.
A 12-mer peptide (1947.01) plus an N-terminal cysteine (CQLRGLRRWLEAK) (SEQ ID NO. 3) representing the candidate sequence identified by mass spectrometry were synthesized and its ability to inhibit cell adhesion was determined. Tissue culture dishes were coated with 5 μg/ml chondroadherin expressed in E. coli and blocked for non-specific binding with BSA. The cells were suspended in PBS containing 0.1% BSA, 25 U/ml collagenase and added to the wells (50,000/well) in the presence of synthetic peptide (200, 100, 50, 25, 12.5 μg/ml) and allowed to adhere for 1 hour at 37° C. Nonadherent cells were removed by washing, and adhesion was determined by analyzing lysosomal hexosaminidase. […]

[1] = system: IL-1 stimulated cartilage; experiment: NO release in IL-1 stimulated cartilage explants (Griess reaction); assay type: cell-based, bovine; conditions: 400 uM peptide, IL-1a 10 ng/ml
Method: The following experiments measure the effect of a peptide on NO release in IL-1 stimulated cartilage.
Study design: A skinned bovine nose (from cows 18-24 months old) was collected at Hörby slaughter house (Team Ugglarp, Sweden). The septum inside the nose was cut out and the mucosa and the perichondrium was removed before the cartilage was placed in PBS with PEST (100 IU penicillin, 100 μg/ml streptomycin) and 2.5 μg/ml Fungizone (all from Invitrogen, Sweden) for 2 hours at room temperature.
Two mm pieces were punched out of the cartilage. Each piece was placed in a 24-well cell culture plate (Falcon, Sweden) containing 1 ml cell culture medium, HAMs F12 (Invitrogen, Sweden) supplemented with 10 μg/ml BSA, […] (both from Sigma, Sweden), PEST (100 IU penicillin, […]) and 2.5 μg/ml Fungizone. After 24 hours, the medium was changed and the cartilage pieces were stimulated with human recombinant IL-1a, 10 ng/ml (Roche, Sweden). The peptides where tested in triplet at 20 and 400 μM. The cartilage tissue was incubated for another six days, mediums were exchanged every third day. On each occasion the media were collected for measurement of NO (Griess reaction).

[2] = system: IL-1 stimulated synoviocytes; experiment: IL-6 release in IL-1 stimulated synoviocytes (ELISA); assay type: cell-based, rat; conditions: 50-400 μM peptide, IL-1a 50 ng/ml, 72 hour
Method: The following experiments measure the IL-6 release in IL-1 stimulated synoviocytes.
Study design: From rats with antigen induced arthritis, the hyperproliferative synovium, pannus, was taken from the inflamed knee day four after disease onset. The pannus tissue was cut to small pieces in PBS with PEST (100 IU penicillin, 100 μg/ml streptomycin) and Fungizone (2.5 μg/ml)(all from InVitrogen, Sweden), before incubation in collagenase (400 U/ml, Worthington, USA) for 3 hours at 37° C., 5% CO2. Cells were centrifugated (8 min., room temperature, 1100 rpm.) and suspended in RPMI 1640 supplemented with 10% FCS (InVitrogen, Sweden), PEST and Fungizone and seeded in a 25 cm^2 flask at 37° C., 5% CO2. The following day, cells were rinsed once with medium and further incubated. When confluent, cells were trypsinated for 1 min (0.25% Trypsin with EDTA, InVitrogen, Sweden) counted and seeded in 96 well plates, 10000 cells/well/200 μl.
After 24 hours, the medium was changed and the cells were stimulated with human recombinant IL-1a, 50 ng/ml (Roche, Sweden). The peptide to be investigated was tested in triplets in the concentration interval 50-400 μM. After 72 hour incubation at 37° C., 5% CO2, the medium was collected for measurement of NO (Griess reaction) and IL-6 was analyzed by an ELISA, according to the manufacturer's instructions (BD Biosciences, USA).

[3] = system: m-BSA antigen induced monoarthritis in rat; experiment: In vivo antigen induced arthritis, knee-joint swelling; conditions: intra-articular, twice daily
Method: The following model experiment measure the effect of the investigated compound on knee-joint swelling using antigen induced arthritis.
The effect of locally administered test compound, 400 mM given twice daily, on the development of arthritis in m-BSA antigen induced monoarthritis in rat was evaluated. Animals treated with saline or Methotrexate (in clinically relevant dose) were used as controls.
Study design: Female Dark Agouti rats, weighing approximately 150 g (B&K breeding center, Denmark) were used. The animals were sensitised intradermally at the tail root with 1 mg mBSA (Sigma A-1009) dissolved in […] and emulsified in […] complete adjuvant (Sigma F 5881). Ten days later the rats were shaved (left knee) and challenged with an intraarticular (i.a) injection of […]. Test compounds were administered intra-articular (left knee) in […] four hours before challenge and thereafter twice daily. The development of arthritis (knee diameters) was registered with an odimeter/calliper. The procedures were carried out under a brief Enflurane anaesthesia. The animals were sacrificed at day 4 after challenge/first treatment.

For “H-[CQLRGLRRWLEAKASRPDATC]-OH (H-CQLRGLRRWLEAKASRPDATC-OH; also: cyclised (brackets), bond type not given here) [SEQ ID No. 9]”, the “inhibitory effect on K105 cell adhesion to chondroadherin (Example II, FIG. 13)” value (K105 cells) was “inhibitory effect”, the “NO-release from IL-1 stimulated cartilage explants” value [1] was “decrease” and the “IL-6-release from IL-1 stimulated synoviocytes” value [2] was “decrease”. The “disease-ameliorating effect compared with methotrexate” value [3] was “in the same magnitude as methotrexate treatment” and the “knee-joint swelling compared with saline treated animals” value ([3]; 4 days) was “decreased”.
